Measurements reported in ChEMBL document CHEMBL3351309, “DNA binders in clinical trials and chemotherapy” (2014).

Test system: U2OS
Test: Growth inhibition of human U2OS cells after 3 days in presence of werner syndrome helicase inhibitor NSC 19630
Type: functional

## Cc1oc2nc1-c1nc(co1)-c1nc(co1)-c1nc(co1)-c1nc(co1)-c1nc(co1)C1=NC(CS1)c1nc-2c(C)o1 (stereo unspecified) [TELOMESTATIN]
  growth inhibition (GI): 70%
